{"source": "patent US20230011869A1", "about": "(Hoffmann-La Roche Inc., priority 2018, published 2023)", "note": "Structures can show the parent of a compound that is named as a salt."}
{"system": "Acinetobacter baumannii ATCC17978", "assay": "Antimicrobial susceptibility testing: 90% growth inhibitory concentration (IC90) determination, Iso-Sensitest broth", "type": "cell-based", "settings": "90% growth inhibitory concentration, Acinetobacter baumannii ATCC17978, Iso-Sensitest broth, OD 600 nm over 16 h; read-out: ATCC17978 IC90", "description": "(§1) Antimicrobial Susceptibility Testing:\n(§2) 90% Growth Inhibitory Concentration (IC90) Determination\n(§3) The in vitro antimicrobial activity of the compounds was determined according to the following procedure:\n(§4) The assay used a 10-points Iso-Sensitest broth medium to measure quantitatively the in vitro activity of the compounds against Acinetobacter baumannii ATCC17978 and Acinetobacter baumannii ATCC17961.\n(§5) Microtiter plates were incubated at 35±2° C.\n(§6) Bacterial cell growth was determined with the measurement of optical density at λ=600 nm each 20 minutes over a time course of 16 h. Growth inhibition was calculated during the logarithmic growth of the bacterial cells with determination of the concentration inhibiting 50% (IC50) and 90% (IC90) of the growth.", "units": {"IC90": "nM"}}
{"compound": "Cc1cc(Nc2nccn3c(-c4ccc(OC(F)F)cc4)cnc23)ccc1C(=O)N1CCC(C(N)=O)CC1", "note": "[Example 4, 1-(4-((3-(4-(difluoromethoxy)phenyl)imidazo[1,2-a]pyrazin-8-yl)amino)-2-methylbenzoyl)piperidine-4-carboxamide]", "IC90": 120}
{"compound": "COc1ccc(-c2cnc3c(Nc4ccc(C(=O)N5CCN(C)CC5)c(C)c4)nccn23)cc1", "note": "[Example 5, (4-((3-(4-methoxyphenyl)imidazo[1,2-a]pyrazin-8-yl)amino)-2-methylphenyl)(4-methylpiperazin-1-yl)methanone]", "IC90": 1200}
{"compound": "COc1ccc(-c2cnc3c(Nc4ccc(C(=O)N5CCOCC5)c(C)c4)nccn23)cc1", "note": "[Example 6, (4-((3-(4-methoxyphenyl)imidazo[1,2-a]pyrazin-8-yl)amino)-2-methylphenyl)(morpholine)methanone]", "IC90": 350}
{"compound": "COc1ccc(-c2cnc3c(Nc4ccc(C(=O)N5CCC(O)CC5)c(C)c4)nccn23)cc1", "note": "[Example 7, (4-hydroxypiperidin-1-yl)(4-((3-(4-methoxyphenyl)imidazo[1,2-a]pyrazin-8-yl)amino)-2-methylphenyl)methanone]", "IC90": 660}
{"compound": "Cc1cc(Nc2nccn3c(-c4ccc(OC(F)F)cc4)cnc23)ccc1C(=O)N1CCC(n2cncn2)CC1", "note": "[Example 8, (4-(1H-1,2,4-triazol-1-yl)piperidin-1-yl)(4-((3-(4-(difluoromethoxy)phenyl)imidazo[1,2-a]pyrazin-8-yl)amino)-2-methylphenyl)methanone]", "IC90": 130}
{"compound": "Cc1cc(Nc2nccn3c(-c4ccc(OC(F)F)cc4)cnc23)ccc1C(=O)N1CCC(N2CCNC2=O)CC1", "note": "[Example 9, 1-(1-(4-((3-(4-(difluoromethoxy)phenyl)imidazo[1,2-a]pyrazin-8-yl)amino)-2-methylbenzoyl)piperidin-4-yl)imidazolidin-2-one]", "IC90": 410}
{"compound": "Cc1cc(Nc2nccn3c(-c4ccc(OC(F)F)cc4)cnc23)ccc1C(=O)N1CCCC(C(N)=O)C1", "note": "(centres unmarked) [Example 10, 1-(4-((3-(4-(difluoromethoxy)phenyl)imidazo[1,2-a]pyrazin-8-yl)amino)-2-methylbenzoyl)piperidine-3-carboxamide]", "IC90": 1600}
{"compound": "CCOC(=O)NC1CCN(C(=O)c2ccc(Nc3nccn4c(-c5ccc(OC(F)F)cc5)cnc34)cc2C)CC1", "note": "[Example 11, ethyl (1-(4-((3-(4-(difluoromethoxy)phenyl)imidazo[1,2-a]pyrazin-8-yl)amino)-2-methylbenzoyl)piperidin-4-yl)carbamate]", "IC90": 580}
{"compound": "Cc1cc(Nc2nccn3c(-c4ccc(OC(F)F)cc4)cnc23)ccc1C(=O)N1CCC(Oc2ncccn2)CC1", "note": "[Example 12]", "IC90": 720}
{"compound": "Cc1cc(Nc2nccn3c(-c4ccc(OC(F)F)cc4)cnc23)ccc1C(=O)N1CCC(c2nncn2C)CC1", "note": "[Example 13, (4-((3-(4-(difluoromethoxy)phenyl)imidazo[1,2-a]pyrazin-8-yl)amino)-2-methylphenyl)(4-(4-methyl-4H-1,2,4-triazol-3-yl)piperidin-1-yl)methanone]", "IC90": 130}
{"compound": "COc1ccc(-c2cnc3c(Nc4ccc(C(=O)N5CCC(C(=O)N6CCNCC6)CC5)c(C)c4)nccn23)cc1F", "note": "[Example 14, (1-(4-((3-(3-fluoro-4-methoxyphenyl)imidazo[1,2-a]pyrazin-8-yl)amino)-2-methylbenzoyl)piperidin-4-yl)(piperazin-1-yl)methanone hydrochloride]", "IC90": 140}
{"compound": "CNC(=O)C1CCN(C(=O)c2ccc(Nc3nccn4c(-c5ccc(OC(F)F)cc5)cnc34)cc2C)CC1", "note": "[Example 15, 1-(4-((3-(4-(difluoromethoxy)phenyl)imidazo[1,2-a]pyrazin-8-yl)amino)-2-methylbenzoyl)-N-methylpiperidine-4-carboxamide]", "IC90": 150}
{"compound": "Cc1cc(Nc2nccn3c(-c4ccc(OC(F)F)cc4)cnc23)ccc1C(=O)N1CCC(Cn2cccn2)CC1", "note": "[Example 16, (4-((1H-pyrazol-1-yl)methyl)piperidin-1-yl)(4-((3-(4-(difluoromethoxy)phenyl)imidazo[1,2-a]pyrazin-8-yl)amino)-2-methylphenyl)methanone]", "IC90": 930}
{"compound": "Cc1cc(Nc2nccn3c(-c4ccc(OC(F)F)cc4)cnc23)ccc1C(=O)N1CCC2(CC1)CNCCO2", "note": "[Example 17, (4-((3-(4-(difluoromethoxy)phenyl)imidazo[1,2-a]pyrazin-8-yl)amino)-2-methylphenyl)(1-oxa-4,9-diazaspiro[5.5]undecan-9-yl)methanone]", "IC90": 1300}
{"compound": "Cc1cc(Nc2nccn3c(-c4ccc(OC(F)F)cc4)cnc23)ccc1C(=O)N1CCC(CN)CC1", "note": "[Example 18, (4-(aminomethyl)piperidin-1-yl)(4-((3-(4-(difluoromethoxy)phenyl)imidazo[1,2-a]pyrazin-8-yl)amino)-2-methylphenyl)methanone hydrochloride]", "IC90": 150}
{"compound": "Cc1cc(Nc2nccn3c(-c4ccc(OC(F)F)cc4)cnc23)ccc1C(=O)N1CCC(C2CNC2)CC1", "note": "[Example 20, (4-(azetidin-3-yl)piperidin-1-yl)(4-((3-(4-(difluoromethoxy)phenyl)imidazo[1,2-a]pyrazin-8-yl)amino)-2-methylphenyl)methanone hydrochloride]", "IC90": 160}
{"compound": "COc1ccc(-c2cnc3c(Nc4ccc(C(=O)N5CCOCC5)c(C)c4)nccn23)cc1Cl", "note": "[Example 21, (4-((3-(3-chloro-4-methoxyphenyl)imidazo[1,2-a]pyrazin-8-yl)amino)-2-methylphenyl)(morpholino)methanone]", "IC90": 240}
{"compound": "COc1ccc(-c2cnc3c(Nc4ccc(C(=O)N5CCN(C)CC5)c(C)c4)nccn23)cc1Cl", "note": "[Example 22, (4-((3-(3-chloro-4-methoxyphenyl)imidazo[1,2-a]pyrazin-8-yl)amino)-2-methylphenyl)(4-methylpiperazin-1-yl)methanone]", "IC90": 1300}
{"compound": "COc1ccc(-c2cnc3c(Nc4ccc(C(=O)N5CCOC(CN(C)C)C5)c(C)c4)nccn23)cc1F", "note": "(centres unmarked) [Example 23, [2-[(dimethylamino)methyl]morpholin-4-yl]-[4-[[3-(3-fluoro-4-methoxy-phenyl)imidazo[1,2-a]pyrazin-8-yl]amino]-2-methyl-phenyl]methanone;2,2,2-trifluoroacetic acid]", "IC90": 1100}
{"compound": "Cc1cc(Nc2nccn3c(-c4ccc(OC(F)F)cc4)cnc23)ccc1C(=O)N1CCN(CCN)CC1", "note": "[Example 24, [4-(2-aminoethyl)piperazin-1-yl]-[4-[[3-[4-(difluoromethoxy)phenyl]imidazo[1,2-a]pyrazin-8-yl]amino]-2-methyl-phenyl]methanone]", "IC90": 670}
{"compound": "CN(C)CCN1CCN(C(=O)c2ccc(Nc3nccn4c(-c5ccc(OCC#N)c(F)c5Cl)cnc34)cc2Cl)CC1", "note": "[Example 25, 2-[3-chloro-4-[8-[3-chloro-4-[4-[2-(dimethylamino)ethyl]piperazine-1-carbonyl]anilino]imidazo[1,2-a]pyrazin-3-yl]-2-fluoro-phenoxy]acetontrile]", "IC90": 140}
{"compound": "COc1ccc(-c2cnc3c(Nc4ccc(C(=O)N5CCN(CCN(C)C)CC5)c(C)c4)nccn23)c(F)c1F", "note": "[Example 27]", "IC90": 160}
{"compound": "COc1ccc(-c2cnc3c(Nc4ccc(C(=O)N5CCC(CN)CC5)c(C)c4)nccn23)c(F)c1F", "note": "[Example 28, (4-(aminomethyl)piperidin-1-yl)(4-((3-(2,3-difluoro-4-methoxyphenyl)imidazo[1,2-a]pyrazin-8-yl)amino)-2-methylphenyl)methanone]", "IC90": 170}
{"compound": "COc1ccc(-c2cnc3c(Nc4ccc(C(=O)N5CCC(CN(C)C)CC5)c(C)c4)nccn23)c(F)c1F", "note": "[Example 29, (4-((3-(2,3-difluoro-4-methoxyphenyl)imidazo[1,2-a]pyrazin-8-yl)amino)-2-methylphenyl)(4-((dimethylamino)methyl)piperidin-1-yl)methanone]", "IC90": 120}
{"compound": "CCc1cc(Nc2nccn3c(-c4ccc(OCC#N)c(F)c4F)cnc23)ccc1C(=O)N1CCN(CCN(C)C)CC1", "note": "[Example 30, 2-(4-(8-((4-(4-(2-(dimethylamino)ethyl)piperazine-1-carbonyl)-3-ethylphenyl)amino)imidazo[1,2-a]pyrazin-3-yl)-2,3-difluorophenoxy)acetonitrile]", "IC90": 130}
{"compound": "Cc1cc(Nc2nccn3c(-c4ccc(OCC#N)c(F)c4F)cnc23)ccc1C(=O)N1CCC(CN)CC1", "note": "[Example 31, 2-[4-[8-[4-[4-(aminomethyl)piperidine-1-carbonyl]-3-methyl-anilino]imidazo[1,2-a]pyrazin-3-yl]-2,3-difluoro-phenoxy]acetonitrile;2,2,2-trifluoroacetic acid]", "IC90": 120}
{"compound": "Cc1cc(Nc2nccn3c(-c4cc(F)c(OCC#N)cc4Cl)cnc23)ccc1C(=O)N1CCC(C(=O)N2CCNC(CO)C2)CC1", "note": "(centres unmarked) [Example 32, 2-[5-chloro-2-fluoro-4-[8-[4-[4-[3-(hydroxymethyl)piperazine-1-carbonyl]piperidine-1-carbonyl]-3-methyl-anilino]imidazo[1,2-a]pyrazin-3-yl]phenoxy]acetonitrile;2,2,2-trifluoroacetic acid]", "IC90": 210}
{"compound": "Cc1cc(Nc2nccn3c(-c4ccc(OC(F)F)cc4)cnc23)ccc1C(=O)N1CCC(C(=O)N2C[C@H](CO)[C@@H](O)[C@H](O)C2)CC1", "note": "[Example 33, (1-(4-((3-(4-(difluoromethoxy)phenyl)imidazo[1,2-a]pyrazin-8-yl)amino)-2-methylbenzoyl)piperidin-4-yl)((3R,4R,5R)-3,4-dihydroxy-5-(hydroxymethyl)piperidin-1-yl)methanone]", "IC90": 230}
{"system": "Acinetobacter baumannii ATCC17978", "assay": "Antimicrobial susceptibility testing: 90% growth inhibitory concentration (IC90) determination, Iso-Sensitest broth", "type": "cell-based", "settings": "Acinetobacter baumannii, ATCC17978, 16 h, read-out: ATCC17978 IC90, 90% growth inhibitory concentration, Acinetobacter baumannii ATCC17978, Iso-Sensitest broth, OD 600 nm over 16 h", "description": "as §1, §2, §3, §4, §5, §6", "units": {"IC90": "nM"}}
{"compound": "COc1cc(Cl)c(-c2cnc3c(Nc4ccc(C(=O)N5CCC(CN)CC5)c(C)c4)nccn23)cc1F", "note": "[Example 26, [4-(aminomethyl)-1-piperidyl]-[4-[[3-(2-chloro-5-fluoro-4-methoxy-phenyl)imidazo[1,2-a]pyrazin-8-yl]amino]-2-methyl-phenyl]methanone hydrochloride]", "IC90": 370}
